Measured values taken from patent publication US20220202912A1, “Polypeptides in Preparation of Drugs for Treatment or Prevention of Rheumatoid Arthritis” (priority 2011, published 2022).
Where no end group is shown, it is not given here.

Experiments:
[1] = system: λ-carrageenan acute inflammation; experiment: acute toe swelling in carrageenan-induced transgenic TNF-luc mice; assay type: in vivo, BALB/c transgenic TNF-luc mice; conditions: Adalimumab 8 mg/kg, mPEG-SC20k-HM-3 20 mg/kg sc
Experimental: Before modeling, 8 animals are randomly divided into 4 groups (n=2), a normal group, a model group, a positive drug group and a test treatment group. One hour before modeling, the normal group and the model group are hypodermically injected with normal saline (0.2 mL/20 g of body weight) respectively; the positive drug group is hypodermically injected with Adalimumab (8 mg/kg of body weight), 15 d/time, once; and the test treatment group is hypodermically injected with mPEG-SC20k-HM-3 (20 mg/kg of body weight), 2 d/time, twice. The initial ankle width, foot palm width and toe thickness of the left foot are measured as initial values.
Modeling starts at hour 0, 50 μL of 1% carrageenan is hypodermically injected into the bottom of left toe of transgenic TNF-luc mice, and the ankle swelling degree, foot palm swelling degree and toe swelling degree of each group of mice are measured with a vernier caliper at […], hour 1, hour 3, hour 5, hour 7, hour 9, hour 12, hour 24, hour 48, hour 72 and hour 96 respectively. Method for calculating toe swelling degree:
Swelling degree of left ankle (cm)=swelling thickness of left ankle during measurement−thickness of left ankle during initial measurement.
Swelling degree of left foot palm (cm)=swelling thickness of left foot palm during measurement−thickness of left foot palm during initial measurement.
Swelling degree of left toe (cm)=swelling thickness of left toe during measurement−thickness of left toe during initial measurement.

TNF-α = experiment: in vivo imaging of TNF-α expression, AIA transgenic TNF-luc mice; design: species or system BALB/c transgenic TNF-luc mice; conditions: Adalimumab 8 mg/kg; for Fluorescence intensity (in vivo imaging): mPEG-SC20k-HM-3 20 mg/kg sc; for in vivo fluorescence densities: mPEG-SC20k-HM-3 20 mg/kg
Experimental: […] After the mice are lightly anesthetized with ether, the mice are fixed within 5-20 min and put into an in vivo imager, the imager is covered with an instrument lid, on-fluro and om-photo names in the desktop imaging interface of the computer are clicked, and the expose button is clicked to complete the fluorescence and white light photos of mice in vivo imaging.
(1) Imaging principle: Fluorescein substrate is injected intraperitoneally, and binds to luciferase carried on TNF-α protein to catalyze luminescence. Through the Luciferase fluorescent reporter group on TNF, the change of the fluorescence area in mice is observed, and the expression of TNF-α is evaluated, so as to evaluate the impact of mPEG-SC20k-HM-3 on the expression of TNF-α.
(2) Operation steps: Start the Carestreama in vivo imager, open the MI software, click the Capture button, and set photographing conditions. In the on-flour fluorescence mode, set the parameters X Binning. 2 pixels, Y Binning. 2 pixels; Illumination Source: Multi-wavelength; f-stop: 2.50; field of view (FOV) (mm): 120; focal plane (mm): Tray. Excitation filter: 430 nm, emission filter: 535 nm; exposure time: 30s. Click the Expose button to photograph fluorescence. Under the om-photo name, set the parameters X Binning. 0 pixels, Y Binning. 0 pixels; Illumination Source: None; f-stop: 2.50; FOV (mm): 120; focal plane (mm): Tray. Excitation filter: 0 nm, emission filter: 0 nm; exposure time: 0.175 s. Click the Expose button to photograph white light.
(3) Image processing and output: Analyze and adjust photos of fluorescence function imaging and white light structure imaging to the best, and the FOV is consistent. Click Window→Tie, Display→Invert, Image Display→overlay→Transparency for image stacking. In the image output process, in a navigation panel, click Annotation→Width/Heigh→Scale Analysis Image for setting, click Add Annotation Bar for adding a title, click Add Intensity Scale for adding a ruler, and set Horizontal, Size, Style, Number of Significant Dig, and Horizontal/Vertical Length. Output a picture in Tiff format.

IL-6 = experiment: immunohistochemistry of IL-6 in spleen and thymus, AIA transgenic TNF-luc mice; assay type: in vivo, BALB/c transgenic TNF-luc mice; conditions: Adalimumab 8 mg/kg, mPEG-SC20k-HM-3 20 mg/kg
Experimental: Changes of expression of TNF-α and IL-6 are analyzed by HE staining and immunohistochemistry in the ankle joint, spleen and thymus of the mice. Observation and photographing are performed under the FOVs of ×200 and ×400 times respectively, 5 FOVs are taken randomly for each picture, and data statistics is performed.

| Substance | left ankle swelling ([1]; 1 h) [cm] | left foot (palm) swelling ([1]; 1 h) [cm] | left toe swelling ([1]; 1 h) [cm] | left ankle swelling ([1]; 3 h) [cm] | left foot (palm) swelling ([1]; 3 h) [cm] | left toe swelling ([1]; 3 h) [cm] | left ankle swelling ([1]; 5 h) [cm] | left foot (palm) swelling ([1]; 5 h) [cm] | left toe swelling ([1]; 5 h) [cm] | left ankle swelling ([1]; 7 h) [cm] | left foot (palm) swelling ([1]; 7 h) [cm] | left toe swelling ([1]; 7 h) [cm] | left ankle swelling ([1]; 9 h) [cm] | left foot (palm) swelling ([1]; 9 h) [cm] | left toe swelling ([1]; 9 h) [cm] | left ankle swelling ([1]; 12 h) [cm] | left foot (palm) swelling ([1]; 12 h) [cm] | left toe swelling ([1]; 12 h) [cm] | left ankle swelling ([1]; 24 h) [cm] | left foot (palm) swelling ([1]; 24 h) [cm] | also measured |
| --- | --- | --- | --- | --- | --- | --- | --- | --- | --- | --- | --- | --- | --- | --- | --- | --- | --- | --- | --- | --- | --- |
| Adalimumab [reference compound] | 0.027 ± 0.018 | 0.042 ± 0.035 | 0.094 ± 0.054 | 0.008 ± 0.048 | 0.071 ± 0.016 | 0.115 ± 0.018 | 0.067 ± 0.010 | 0.092 ± 0.014 | 0.150 ± 0.028 | 0.064 ± 0.006 | 0.094 ± 0.011 | 0.126 ± 0.014 | 0.045 ± 0.004 | 0.088 ± 0.025 | 0.126 ± 0.021 | 0.050 ± 0.003 | 0.090 ± 0.031 | 0.114 ± 0.025 | 0.086 ± 0.031 | 0.132 ± 0.006 | left toe swelling ([1]; 24 h): 0.235 ± 0.134 cm; left ankle swelling ([1]; 48 h): 0.105 ± 0.075 cm; left foot (palm) swelling ([1]; 48 h): 0.152 ± 0.074 cm; left toe swelling ([1]; 48 h): 0.264 ± 0.122 cm; left ankle swelling ([1]; 72 h): 0.096 ± 0.051 cm; left foot (palm) swelling ([1]; 72 h): 0.150 ± 0.066 cm; left toe swelling ([1]; 72 h): 0.238 ± 0.113 cm; left ankle swelling ([1]; 96 h): 0.076 ± 0.034 cm; left foot (palm) swelling ([1]; 96 h): 0.133 ± 0.061 cm; left toe swelling ([1]; 96 h): 0.174 ± 0.102 cm; Fluorescence intensity (in vivo imaging) (TNF-α; 17 d (treatment starts)): 46.746 ± 3.457 ×10^5; Fluorescence intensity (in vivo imaging) (TNF-α; 32 d): 26.446 ± 2.659 ×10^5; in vivo fluorescence densities (TNF-α; day 17, as printed in text): 46.75±3.46 10^6; in vivo fluorescence densities (TNF-α; day 32, as printed in text): 26.45±2.66 10^6; immunohistochemical score of IL-6 in spleen (IL-6): 0.013±0.010; immunohistochemical score of IL-6 in thymus (IL-6): 0.039±0.041 |
| mPEG-SC20k-Ile-Val-Arg-Arg-Ala-Asp-Arg-Ala-Ala-Val-Pro-Gly-Gly-Gly-Gly-Arg-Gly-Asp ({mPEG‑SC 20k}-IVRRADRAAVPGGGGRGD) [polypeptide III, No. 3] | 0.060 ± 0.045 | 0.101 ± 0.027 | 0.132 ± 0.054 | 0.079 ± 0.052 | 0.092±0.054 | 0.114 ± 0.025 | 0.117 ± 0.033 | 0.125 ± 0.035 | 0.146 ± 0.003 | 0.074 ± 0.014 | 0.116 ± 0.034 | 0.174 ± 0.065 | 0.061 ± 0.013 | 0.086 ± 0.008 | 0.124 ± 0.014 | 0.055 ± 0.018 | 0.091 ± 0.004 | 0.113 ± 0.027 | 0.066 ± 0.003 | 0.107 ± 0.010 | left toe swelling ([1]; 24 h): 0.136 ± 0.011 cm; left ankle swelling ([1]; 48 h): 0.051±0.044 cm; left foot (palm) swelling ([1]; 48 h): 0.105 ± 0.010 cm; left toe swelling ([1]; 48 h): 0.126 ± 0.031 cm; left ankle swelling ([1]; 72 h): 0.032±0.074 cm; left foot (palm) swelling ([1]; 72 h): 0.101 ± 0.016 cm; left toe swelling ([1]; 72 h): 0.094±0.034 cm; left ankle swelling ([1]; 96 h): 0.032±0.042 cm; left foot (palm) swelling ([1]; 96 h): 0.076±0.006 cm; left toe swelling ([1]; 96 h): 0.084±0.040 cm; Fluorescence intensity (in vivo imaging) (TNF-α; 17 d (treatment starts)): 41.604 ± 6.080 ×10^5; Fluorescence intensity (in vivo imaging) (TNF-α; 32 d): 31.956 ± 1.170 ×10^5; in vivo fluorescence densities (TNF-α; day 17, as printed in text): 41.6±1.68 10^6; in vivo fluorescence densities (TNF-α; day 32, as printed in text): 31.96±1.17 10^6; immunohistochemical score of IL-6 in spleen (IL-6): 0.006±0.002; immunohistochemical score of IL-6 in thymus (IL-6): 0.068±0.033 |
